# Biological target: T1, Langerin CRD (Homo sapiens, UniProt Q9UJ71, V278A)
# T1 construct: residues 193 to 328; made in house; host or cells: E. coli BL21* (DE3)
# Test: 15N HSQC NMR titration (KD determination)
# Format: binding
# Description: Langerin and DC-SIGN carbohydrate recognition domain. Expression and purification were conducted as previously published. Briefly, the monomeric ^15N-labeled Langerin and DC-SIGN carbohydrate recognition domains (CRDs) were expressed insolubly in E. coli BL21* (DE3) (Invitrogen). Following enzymatic cell lysis, inclusion bodies were harvested and subsequently solubilized. The sample was centrifuged and the Langerin and DC-SIGN CRDs were refolded overnight via rapid dilution. Next, the sample was dialyzed overnight, centrifuged and purified via StrepTactin affinity chromatography (Iba). […] The concentration of Langerin and DC-SIGN CRDs was determined via UV spectroscopy (A280, 0.1%=3.19 and A280, 0.1%=2.98). Purity and monodispersity of Langerin and DC-SIGN CRD samples were analyzed via SDS PAGE and DLS. […]
# KD determination. KD values were determined in titration experiments at six ligand concentrations [L]T. Samples were prepared via serial dilution. Chemical shift perturbations CSPs for Langerin CRD resonances in the fast or fast-to-intermediate exchange regime observed upon titration with ligand were calculated via Equation 1 (Williamson, M. P. Using Chemical Shift Perturbation to Characterise Ligand Binding. Prog Nucl Magn Reson Spectrosc 73, 1-16 (2013)). […]
# T1 sequence (Q9UJ71 193-328 V278A): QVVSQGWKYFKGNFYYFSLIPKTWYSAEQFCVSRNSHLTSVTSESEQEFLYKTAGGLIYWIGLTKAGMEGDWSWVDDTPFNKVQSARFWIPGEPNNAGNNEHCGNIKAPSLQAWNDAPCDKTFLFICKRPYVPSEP
compound,measurement,value
CC(=O)NCCO[C@H]1O[C@H](CO)[C@@H](O)[C@H](O)[C@@H]1O [Man analog 21],Kd,12 ± 1 mM
